Source: US12655116B2, “Substituted isophthalic acid diamides” (Bayer Aktiengesellschaft, priority 2020, dated 2026)

Assays:
[1] = test system: AMARE; experiment: Post-emergence herbicidal action against AMARE; format: in vivo, Amaranthus retroflexus; conditions: Amaranthus retroflexus, 504 h, visual assessment about 3 weeks after treatment, 100% = plants have died, 0% = like control plants
Method in brief: (§1)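 Greenhouse plants in sandy loam were sprayed at the one-leaf stage, 2 to 3 weeks after sowing, with WP or EC formulations as aqueous suspension or emulsion (600 to 800 l/ha water, 0.2% wetting agent). Visual damage was scored about 3 weeks later versus untreated controls, 0% = like control, 100% = dead.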

[2] = test system: LOLRI; experiment: Pre-emergence herbicidal action against LOLRI; format: in vivo, Lolium rigidum; conditions: Lolium rigidum, 504 h, 320 g/ha
Method in brief: (§2)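 Pre-emergence soil-surface spray of formulated compound (WP or EC; 600 to 800 l/ha; 0.2% wetting agent) over seeds sown in sandy loam. After 3 weeks under greenhouse conditions, damage is estimated visually in percent against untreated plants.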

[3] = test system: AMARE; experiment: Pre-emergence herbicidal action against AMARE; format: in vivo, Amaranthus retroflexus; conditions: Amaranthus retroflexus, 504 h, 100% = plants have died, 0% = like control plants
Method in brief: as §2

[4] = test system: SETVI; experiment: Pre-emergence herbicidal action against SETVI; format: in vivo, Setaria viridis; conditions: Setaria viridis, 504 h
Method in brief: as §2

[5] = test system: HORMU; experiment: Pre-emergence herbicidal action against HORMU; format: in vivo, Hordeum murinum; conditions: Hordeum murinum, 504 h, pre-emergence
Method in brief: as §2

[6] = test system: VIOTR; experiment: Post-emergence herbicidal action against VIOTR; format: in vivo, Viola tricolor; conditions: Viola tricolor, 504 h, 80 g/ha
Method in brief: as §1

[7] = test system: VERPE; experiment: Post-emergence herbicidal action against VERPE; format: in vivo, Veronica persica; conditions: Veronica persica, 504 h
Method in brief: as §1

[8] = test system: STEME; experiment: Post-emergence herbicidal action against STEME; format: in vivo, Stellaria media; conditions: Stellaria media, 504 h
Method in brief: as §1

[9] = test system: ABUTH; experiment: Pre-emergence herbicidal action against ABUTH; format: in vivo, Abutilon theophrasti; conditions: Abutilon theophrasti, 504 h
Method in brief: as §2

[10] = test system: ALOMY; experiment: Pre-emergence herbicidal action against ALOMY; format: in vivo, Alopecurus myosuroides; conditions: Alopecurus myosuroides, 504 h, pre-emergence
Method in brief: as §2

[11] = test system: LOLRI; experiment: Post-emergence herbicidal action against LOLRI; format: in vivo, Lolium rigidum; conditions: Lolium rigidum, 504 h, dosage 80 g/ha
Method in brief: as §1

[12] = test system: VIOTR; experiment: Pre-emergence herbicidal action against VIOTR; format: in vivo, Viola tricolor; conditions: Viola tricolor, 504 h
Method in brief: as §2

[13] = test system: ECHCG; experiment: Post-emergence herbicidal action against ECHCG; format: in vivo, Echinochloa crus-galli; conditions: Echinochloa crus-galli, 504 h
Method in brief: as §1

[14] = test system: POLCO; experiment: Post-emergence herbicidal action against POLCO; format: in vivo, Polygonum convolvulus; conditions: Fallopia convolvulus, 504 h, dosage 80 g/ha
Method in brief: as §1

[15] = test system: STEME; experiment: Pre-emergence herbicidal action against STEME; format: in vivo, Stellaria media; conditions: Stellaria media, 504 h
Method in brief: as §2

[16] = test system: MATIN; experiment: Post-emergence herbicidal action against MATIN; format: in vivo, Matricaria inodora; conditions: Tripleurospermum inodorum, 504 h
Method in brief: as §1

[17] = test system: HORMU; experiment: Post-emergence herbicidal action against HORMU; format: in vivo, Hordeum murinum; conditions: Hordeum murinum, 504 h
Method in brief: as §1

[18] = test system: MATIN; experiment: Pre-emergence herbicidal action against MATIN; format: in vivo, Matricaria inodora; conditions: Tripleurospermum inodorum, 504 h
Method in brief: as §2

[19] = test system: VERPE; experiment: Pre-emergence herbicidal action against VERPE; format: in vivo, Veronica persica; conditions: Veronica persica, 504 h, dosage 320 g/ha
Method in brief: as §2

[20] = test system: AVEFA; experiment: Pre-emergence herbicidal action against AVEFA; format: in vivo, Avena fatua; conditions: Avena fatua, 504 h, pre-emergence
Method in brief: as §2

[21] = test system: PHBPU; experiment: Post-emergence herbicidal action against PHBPU; format: in vivo, Pharbitis purpurea; conditions: Ipomoea purpurea, 504 h, dosage 80 g/ha
Method in brief: as §1

[22] = test system: ECHCG; experiment: Pre-emergence herbicidal action against ECHCG; format: in vivo, Echinochloa crus-galli; conditions: Echinochloa crus-galli, 504 h
Method in brief: as §2

[23] = test system: AVEFA; experiment: Post-emergence herbicidal action against AVEFA; format: in vivo, Avena fatua; conditions: Avena fatua, 504 h, visual assessment about 3 weeks after treatment, 100% = plants have died, 0% = like control plants
Method in brief: as §1

[24] = 80 g/ha, scored visually after 3 weeks vs untreated controls (100% = plants have died, 0% = like control plants)
[25] = 320 g/ha, scored visually after 3 weeks, 100% = plants have died, 0% = like control plants

CCn1nnnc1NC(=O)c1ccc(C(F)F)c(C(=O)NC)c1Cl [Example 2-147]
pest or weed control at 20 g/ha ([1]; 20 g/ha): 90%
pest or weed control at 80 g/ha ([1]; 80 g/ha): 90%
pest or weed control at 320 g/ha [2]: 90%
pest or weed control at 80 g/ha ([3]; 80 g/ha, scored visually after 3 weeks vs untreated controls): 100%
pest or weed control at 320 g/ha ([3]; 320 g/ha, scored visually after 3 weeks): 100%
pest or weed control at 80 g/ha ([4]; dosage 80 g/ha): 100%
pest or weed control at 320 g/ha ([4]; dosage 320 g/ha): 100%
pest or weed control at 80 g/ha ([5]; 80 g/ha): 90%
pest or weed control at 320 g/ha ([5]; 320 g/ha): 100%
pest or weed control at 80 g/ha [6]: 80%
pest or weed control at 20 g/ha ([7]; 20 g/ha): 80%
pest or weed control at 80 g/ha ([7]; 80 g/ha): 90%
pest or weed control at 20 g/ha ([8]; 20 g/ha): 80%
pest or weed control at 80 g/ha ([8]; 80 g/ha): 90%
pest or weed control at 80 g/ha [9, 24]: 100%
pest or weed control at 320 g/ha ([9]; Dosage: 320 g/ha, scored visually after 3 weeks, 100% = plants have died, 0% = like control plants): 100%
pest or weed control at 80 g/ha [10, 24]: 90%
pest or weed control at 320 g/ha [10, 25]: 100%
pest or weed control at 80 g/ha [11]: 90%
pest or weed control at 80 g/ha ([12]; dosage 80 g/ha): 100%
pest or weed control at 320 g/ha ([12]; dosage 320 g/ha): 100%
pest or weed control at 20 g/ha ([13]; dosage 20 g/ha): 90%
pest or weed control at 80 g/ha ([13]; dosage 80 g/ha): 90%
pest or weed control at 80 g/ha [14]: 80%
pest or weed control at 80 g/ha ([15]; dosage 80 g/ha): 100%
pest or weed control at 320 g/ha ([15]; dosage 320 g/ha): 100%
pest or weed control at 20 g/ha ([16]; dosage 20 g/ha): 100%
pest or weed control at 80 g/ha ([16]; dosage 80 g/ha): 100%
pest or weed control at 20 g/ha ([17]; dosage 20 g/ha): 80%
pest or weed control at 80 g/ha ([17]; dosage 80 g/ha): 90%
pest or weed control at 80 g/ha ([18]; dosage 80 g/ha): 100%
pest or weed control at 320 g/ha ([18]; dosage 320 g/ha): 100%
pest or weed control at 320 g/ha [19]: 90%
pest or weed control at 80 g/ha ([20]; 80 g/ha): 100%
pest or weed control at 320 g/ha [20, 25]: 100%
pest or weed control at 80 g/ha [21]: 80%
pest or weed control at 80 g/ha ([22]; 80 g/ha): 100%
pest or weed control at 320 g/ha ([22]; 320 g/ha): 100%
pest or weed control at 20 g/ha ([23]; 20 g/ha): 90%
pest or weed control at 80 g/ha ([23]; 80 g/ha): 100%
